According to US20240327376A1, “PICOLINAMIDE COMPOUNDS AS SELECTIVE PHD1 INHIBITORS, COMPOSITIONS, AND METHODS OF USE” (Akebia Therapeutics, Inc., priority 2021, published 2024):

biological target: T1, full-length human PHD1 (selectivity versus full-length human PHD2) (Homo sapiens, UniProt Q96KS0); experiment: TR-FRET assay of PHD enzymes (IC50; Ki by Cheng-Prusoff; selectivity as ratio of Kis); type: biochemical; conditions: ratio of Kis in the PHD1 and PHD2 TR-FRET assays; Ki=IC50/(1+[2-OG]/Km), 1 uM 2-OG
T1 construct: purchased Active Motif (Carlsbad, CA, USA) 81064; host or cells: baculovirus expression system
From the text: Time-resolved fluorescence resonance energy transfer (TR-FRET) assay was utilized to determine the enzymatic half maximal inhibitory concentration (IC50) value of PHD inhibitors against the full-length human prolyl-4-hydroxylase domain (PHD) enzymes, PHD1 and PHD2. The TR-FRET assay was developed based on the specific binding of hydroxylated HIF-1α peptide with the complex formed by VHL, EloB and EloC (VBC), to generate a fluorescent signal. Terbium (Tb)-Donor (monoclonal antibody anti-6His-Tb-cryptate Gold) and D2-acceptor (streptavidin [SA]-D2) of TR-FRET are linked to the VBC complex and to HIF-1a peptide, respectively. The VBC complex binds specifically to the HIF-1a peptide when it is hydroxylated, allowing energy transfer from TR-FRET donor to acceptor (FIG. 1).
TR-FRET Reagents. Monoclonal antibody anti-6His-Tb-cryptate Gold (catalog #61HI2TLA) and streptavidin (SA)-D2 (catalog #610SADLA) were purchased from CisBio International (Bedford, MA, USA).
N-terminus biotinylated HIF-1α C35 synthetic peptide representing amino acids 547 to 581 and including the proline 564 PHD2 hydroxylation site was purchased from California Peptide Research (Salt Lake City, UT, USA).
VBC complex. His-tagged recombinant VHL protein, EloB, EloC complex (His-VBC) was supplied by Axxam (Milan, Italy). Recombinant human VHL (National Center for Biotechnology Information [NCBI] accession number NP_00542.1) contained a His tag at the C-terminus of amino acids 55 to 213 and is referred to as VHL-His. VHL-His was co-expressed in E. coli with full-length human EloB (NCBI accession number Q15370.1) and full-length human EloC (NCBI accession number Q15369.1) and purified by affinity chromatography on a nickel-nitrilotriacetic acid (Ni-NTA) column as the His-VBC complex. Purity (˜80%) was assessed by sodium dodecyl sulfate polyacrylamide gel electrophoresis (SDS-PAGE).
PHD1. Recombinant human PHD1 protein (catalog #81064, Lot #24717001) was purchased from Active Motif (Carlsbad, CA, USA). PHD1 was expressed in a baculovirus expression system as the full-length protein (NCBI accession number NP_542770.2) with an N-terminal FLAG tag (molecular weight 44.9 kDa). Purity (>90%) was assessed by SDS-PAGE.
PHD2. The full-length human PHD2 enzyme was produced with a baculovirus infected insect cell (BIIC) expression system by Beryllium (Bedford, MA, USA). The PHD2 construct contained amino acids 1 to 426 of PHD2 (UniProt Knowledgebase[UniProtKB]/Swiss-Prot accession number Q9GZT9.1), and a His tag and a Tobacco Etch Virus (TEV) protease cleavage site at the N-terminus. The construct was expressed in Sf9 insect cells, purified by Ni-NTA column and digested with TEV protease to remove the His tag.
TR-FRET Assay Procedure. PHD inhibitor compound was preincubated with PHD enzyme in a 10 μL reaction volume in white 384-well Optiplate microplates (catalog #6007290, Perkin Elmer, Waltham, MA, USA). For this, 5 μL of PHD inhibitor compound was serially diluted with dilution buffer (50 mM HEPES [4-(2-hydroxyethyl)-1-piperazineethanesulfonic acid] pH 7.5, 50 mM sodium chloride [NaCl], 0.01% Tween-20, 0.01% purified bovine serum albumin [BSA]) and mixed with 5 μL PHD enzyme mix prepared as a 4× concentrate in the dilution buffer containing PHD enzyme (60 nM PHD1, 20 nM PHD2, 140 nM PHD3), 40 μM ferrous ammonium sulfate (FAS), 4 mM sodium (Na) ascorbate. The plates were incubated for 30 minutes at room temperature without rotation.
Five microliters of the VBC/anti-6His-Tb-cryptate Gold mix prepared as a 4× concentrate in dilution buffer containing 20 nM His-VBC, 1.32 nM monoclonal antibody anti-6His-Tb-cryptate Gold was then added. This step was followed immediately by the addition of […] of the HIF-1a C35 substrate mix prepared as a 4× concentrate in the dilution buffer containing 120 nM biotin-labeled HIF-1a C35, 132 nM SA-D2, 4 μM 2-oxoglutarate (2-OG) to reach a final reaction volume of 20 μL. […]

T1 sequence (Q96KS0 whole entry): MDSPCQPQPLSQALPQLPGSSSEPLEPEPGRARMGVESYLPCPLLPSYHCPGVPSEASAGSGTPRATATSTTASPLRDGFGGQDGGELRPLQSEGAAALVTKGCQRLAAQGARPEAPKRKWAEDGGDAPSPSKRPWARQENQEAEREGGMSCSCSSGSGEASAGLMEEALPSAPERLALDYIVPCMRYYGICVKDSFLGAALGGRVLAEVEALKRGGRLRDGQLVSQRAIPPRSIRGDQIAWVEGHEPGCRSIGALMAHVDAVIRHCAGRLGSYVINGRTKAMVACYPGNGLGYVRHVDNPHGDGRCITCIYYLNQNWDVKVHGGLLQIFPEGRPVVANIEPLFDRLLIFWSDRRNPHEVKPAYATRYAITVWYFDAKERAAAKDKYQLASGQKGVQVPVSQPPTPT

| SMILES | Selectivity of PHD1 over PHD2 |
| --- | --- |
| O=C(NC[C@@H](O)C(=O)O)c1ncc(-c2cnn(-c3ccccc3)c2)cc1O [Compound 11, (R)-2-hydroxy-3-(3-hydroxy-5-(1-phenyl-1H-pyrazol-4-yl)picolinamido)propanoic] | ~42 fold |
| O=C(O)CC1(NC(=O)c2ncc(-c3cnn(-c4ccccc4)c3)cc2O)CCC1 [Compound 16, 2-(1-(3-hydroxy-5-(1-phenyl-1H-pyrazol-4-yl)picolinamido)cyclobutyl)acetic acid] | ~2 fold |
| O=C(NCC1(C(=O)O)CCOCC1)c1ncc(-c2cnn(-c3ccccc3)c2)cc1O [Compound 14, 4-((3-hydroxy-5-(1-phenyl-1H-pyrazol-4-yl)picolinamido)methyl)tetrahydro-2H-pyran-4-carboxylic acid] | ~51 fold |
| O=C(NCC1(C(=O)O)CCC1)c1ncc(-c2cnn(-c3ccccc3)c2)cc1O [Compound 12, 1-((3-hydroxy-5-(1-phenyl-1H-pyrazol-4-yl)picolinamido)methyl)cyclobutane-1-carboxylic acid] | ~36 fold |
| O=C(NCC1(C(=O)O)CCC1)c1ncc(-c2ccc3ccccc3c2)cc1O [Compound 2, 1-((3-hydroxy-5-(naphthalen-2-yl)picolinamido)methyl)cyclobutane-1-carboxylic acid] | ~1258 fold |
| O=C(NC[C@H](O)C(=O)O)c1ncc(-c2cnn(-c3ccccc3)c2)cc1O [Compound 10, (S)-2-hydroxy-3-(3-hydroxy-5-(1-phenyl-1H-pyrazol-4-yl)picolinamido)propanoic acid] | ~29 fold |
| O=C(NC[C@H](O)C(=O)O)c1ncc(-c2ccc3ccccc3c2)cc1O [Compound 7, (S)-2-hydroxy-3-(3-hydroxy-5-(naphthalen-2-yl)picolinamido)propanoic acid] | ~16 fold |
| O=C(NC[C@@H](O)C(=O)O)c1ncc(-c2cccc(Cl)c2)cc1O [Compound 9, (R)-3-(5-(3-chlorophenyl)-3-hydroxypicolinamido)-2-hydroxypropanoic acid] | ~13 fold |
| O=C(O)CC1(NC(=O)c2ncc(-c3cnn(-c4ccccc4)c3)cc2O)CC1 [Compound 15, 2-(1-(3-hydroxy-5-(1-phenyl-1H-pyrazol-4-yl)picolinamido)cyclopropyl)acetic acid] | ~10 fold |
| O=C(NCC1(C(=O)O)CC1)c1ncc(-c2ccc3ccccc3c2)cc1O [Compound 1, 1-((3-hydroxy-5-(naphthalen-2-yl)picolinamido)methyl)cyclopropane-1-carboxylic acid] | ~219 fold |
| O=C(NCC1(C(=O)O)CCC1)c1ncc(-c2cccc(Cl)c2)cc1O [Compound 4, 1-((5-(3-chlorophenyl)-3-hydroxypicolinamido)methyl)cyclobutane-1-carboxylic acid] | ~6 fold |
| O=C(NCC1(C(=O)O)CCCCC1)c1ncc(-c2cnn(-c3ccccc3)c2)cc1O [Compound 13, 1-((3-hydroxy-5-(1-phenyl-1H-pyrazol-4-yl)picolinamido)methyl)cyclohexane-1-carboxylic acid] | ~2 fold |
| O=C(NCC1(C(=O)O)CC1)c1ncc(-c2cccc(Cl)c2)cc1O [Compound 3, 1-((5-(3-chlorophenyl)-3-hydroxypicolinamido)methyl)cyclopropane-1-carboxylic acid] | ~338 fold |
| O=C(NC[C@@H](O)C(=O)O)c1ncc(-c2ccc3ccccc3c2)cc1O [Compound 8, (R)-2-hydroxy-3-(3-hydroxy-5-(naphthalen-2-yl)picolinamido)propanoic acid] | ~100 fold |
| O=C(NCC1(C(=O)O)CC1)c1ncc(-c2cnn(-c3ccccc3)c2)cc1O [Compound 5, 1-((3-hydroxy-5-(1-phenyl-1H-pyrazol-4-yl)picolinamido)methyl)cyclopropane-1-carboxylic acid] | ~61 fold |
| O=C(NCC1(C(=O)O)CCCC1)c1ncc(-c2cnn(-c3ccccc3)c2)cc1O [Compound 17, 1-((3-hydroxy-5-(1-phenyl-1H-pyrazol-4-yl)picolinamido)methyl)cyclopentane-1-carboxylic acid] | ~8 fold |
| O=C(NC[C@H](O)C(=O)O)c1ncc(-c2cccc(Cl)c2)cc1O [Compound 6, (S)-3-(5-(3-chlorophenyl)-3-hydroxypicolinamido)-2-hydroxypropanoic acid] | ~11 fold |
